Results published in BindingDB's records for doi:10.1016/j.bmcl.2021.128086 (Vrije Universiteit Brussel, 2021).

Molecular target: T1, Type-2 angiotensin II receptor (Homo sapiens, UniProt P50052)
T1 sequence (P50052 whole entry): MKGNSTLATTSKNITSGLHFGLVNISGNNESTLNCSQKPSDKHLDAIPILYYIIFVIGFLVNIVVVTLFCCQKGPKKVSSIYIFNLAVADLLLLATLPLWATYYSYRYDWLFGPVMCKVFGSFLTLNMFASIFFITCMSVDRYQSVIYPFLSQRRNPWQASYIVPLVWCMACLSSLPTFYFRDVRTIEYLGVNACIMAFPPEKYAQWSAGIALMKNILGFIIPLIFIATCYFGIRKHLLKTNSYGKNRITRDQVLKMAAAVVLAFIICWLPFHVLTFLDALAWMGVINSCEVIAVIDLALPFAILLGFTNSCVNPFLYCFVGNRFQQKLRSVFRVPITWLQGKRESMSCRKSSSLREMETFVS
Assay: Displacement of [125-I]-[Sar1, Ile8] from recombinant human AT2R transfected in human HEK293 cells incubated for 2 hrs by liquid scintillation counter analysis

IC50: 4 nM
Substance: H-DRVYIYPF-OH
